Like-named read-outs stand apart in the source and are kept apart here.
How the values were obtained:
[1] = tested on: human liver cancer QGY-7703; assay type: in vivo, nude mice; details: ip × 7 qd; for Tumor Inhibition rate %: counted by tumor weight
Description: (§1) ACP Administration Group: oral doses were 5, 2.5 and 1.25 mg/kg; oral administration twice a day (with an interval of about 6 hours) for 14 days.
(§2) ACP+Adriamycin or Cyclophosphamide Administration Group: oral doses of ACP were 5, 2.5 and 1.25 mg/kg; oral administration twice a day (with an interval of about 6 hours) for 14 days. Adriamycin lmg/kg or Cyclophosphamide 15 mg/kg were administered intraperitoneally 10 min after the first ACP administration for 7 consecutive days.
(§3) Positive Control Group: Adriamycin 2 mg/kg/time or cyclophosphamide 30 mg/kg/time were administered intraperitoneally once a day for 7 days.
(§4) Negative Control Group: the same volume of solvent as the experimental group was administered, and the administration scheme was the same as that of the experimental group.
(§5) Human tumor cell lines cryopstored in liquid nitrogen were cultured at 37° C. and 5% CO2 after resuscitation. After subculture, the cells in logarithmic growth period were taken and prepared into cell suspension of about (1-2)×10^7 Cell/ml, and inoculated subcutaneously in the right axilla of nude mice 0.2 ml/mice. Under aseptic conditions, tumor tissues of the second or later generations of human tumors liver cancer QGY-7703, pancreatic cancer PANC-1, and lung cancer A549 xenograft models with vigorous growth in vivo, were taken and cut into uniform pieces with the size of 1-2 mm3, and one piece was subcutaneously inoculated in the right axilla of each naked mouse with trocar. The mouse were randomly divided into groups till the tumors inoculated grow to more than 100 mm^3 and administered according to the experimental design scheme.
(§6) After administration, the tumor size was dynamically observed and tested, and the body weight of tumor-bearing mice was weighed. The short diameter (a) and long diameter (b) of the tumor of the naked mouse were measured with calipers every 3 days, and the tumor volume was calculated according to the formula of (a^2×b)/2. The relative tumor volume (RTV) was calculated from the measured and calculated tumor volume, RTV=Vt/V0. Wherein, Vo is the tumor volume at random grouping (i.e., d0), and Vt is the tumor volume at each measurement (i.e., dn). The animals in each group were sacrificed at about three weeks, and the tumor volume was measured, dissected and weighed. The relative tumor proliferation rate and tumor inhibition rate were calculated according to the following formula: […]

[2] = tested on: pancreatic cancer tissue from patients; test: Efficacy of ACP combined with gemcitabine in pancreatic cancer SuperPDTX mice model; assay type: in vivo, NCG mice; details: ACP 5 mg/kg p.o. Bid*7, Gemcitabine 30 mg/kg i.p. BIW
Text: (§7) Mice: NCG (NOD-Prkdcem26I12rgem26Nju), Institute of Biomedical Research, Nanjing University
Pancreatic cancer tissue mass were the P2 generation samples of cryopreserved collected from mice after inoculation of the samples from patients with pancreatic cancer, and the samples used in this experiment were P3 generation samples after passage.
(§8) Pancreatic cancer samples were inoculated in the tested mice, and the size of inoculated tissue was 1*1*4mm^3. On the day of inoculation, mice were randomly divided into 4 experimental groups with 6 mice in each group and 4 mice in each cage. The day of grouping was defined as Day 0. The mice were administered according to the experimental protocol for 7 days, and sampled within 24 hours after the end of administration. 24h after the last administration, the experiment was ended, the mice were sacrificed, the tumor was removed, the surrounding connective tissue and muscle tissue were removed under the microscope, and stored in 10% formaldehyde.

[3] = tested on: liver cancer tissue from patients; test: Efficacy of ACP combined with oxaliplatin or sorafenib in liver cancer SuperPDTX mice model; assay type: in vivo, NCG mice; details: pathology after 7 days; ACP 5 mg/kg p.o. Bid*7, Sorafenib 60 mg/kg p.o. Qd*7, Oxaliplatin 6 mg/kg i.p. Biw*1
Text: as §7
as §8, with “Liver cancer tissue mass were the P1 generation samples of cryopreserved collected from mice after inoculation of the samples from patients with liver cancer, and the samples used in this experiment were P2 generation samples after passage. Liver cancer” for “Pancreatic cancer”, “was 1*1*4 mm^3.” for “was 1*1*4mm^3.”, “into 6” for “into 4”, “administration. 24 h” for “administration. 24h”

[4] = tested on: human pancreatic cancer PANC-1; test: Human pancreatic cancer PANC-1 xenograft transplantation model in nude mice; assay type: in vivo; details: ip × 7 qd; for Tumor Inhibition rate %: counted by tumor weight
Description: as §1, §2, §3, §4, §5, §6

human lung cancer A549 = test: Human lung cancer A549 xenograft transplantation model in nude mice; assay type: in vivo; details: ip × 7 qd; for Tumor Inhibition rate %: counted by tumor weight
Description: as §1, §2, §3, §4, §5, §6

SMILES: O=P1(N(CCCl)CCCl)NCCCO1 (stereo not shown) [Cyclophosphamide, cyclophosphamide]
- Tumor weight (gram) x ± SD ([1]; 15 mg/kg): 1.010 ± 0.19 gram
- Tumor Inhibition rate % ([1]; 15 mg/kg): 36.88%
- Tumor weight (gram) x ± SD ([1]; 30 mg/kg): 0.197 ± 0.04 gram
- Tumor Inhibition rate % ([1]; 30 mg/kg): 87.69%

SMILES: Nc1ccn([C@@H]2O[C@H](CO)[C@@H](O)C2(F)F)c(=O)n1 [Gemcitabine, gemcitabine]
- Tumor Ki67 Mean ([2]; immunohistochemistry after 7 days): 23.33 ± 5.16
- Heterotypic Degree ([2]; pathology after 7 days): Moderate
- Proportion of tumor necrosis TCNR Mean ([2]; pathology after 7 days): 0.00 ± 0.00
- Tumor component Mean ([2]; pathology after 7 days): 55.00 ± 18.71

SMILES: O=C1[O][Pt]2([NH][C@@H]3CCCC[C@H]3[NH]2)[O]C1=O [Oxaliplatin, oxaliplatin]
- Heterotypic Degree [3]: Severe
- Proportion of tumor necrosis TCNR Mean [3]: 16.67 ± 8.76%
- Tumor component Mean [3]: 53.33 ± 15.1%

SMILES: CNC(=O)c1cc(Oc2ccc(NC(=O)Nc3ccc(Cl)c(C(F)(F)F)c3)cc2)ccn1 [Sorafenib, sorafenib]
- Heterotypic Degree [3]: Severe
- Proportion of tumor necrosis TCNR Mean [3]: 18.33 ± 7.52%
- Tumor component Mean [3]: 58.33 ± 24.8%

SMILES: COc1cccc2c1C(=O)c1c(O)c3c(c(O)c1C2=O)C[C@@](O)(C(=O)CO)C[C@@H]3O[C@H]1C[C@H](N)[C@H](O)[C@H](C)O1 [adriamycin]
- Tumor weight (gram) x ± SD ([4]; 1 mg/kg): 0.668 ± 0.09 gram
- Tumor Inhibition rate % ([4]; 1 mg/kg): 34.51%
- Tumor weight (gram) x ± SD ([4]; 2 mg/kg): 0.265 ± 0.06 gram
- Tumor Inhibition rate % ([4]; 2 mg/kg): 74.02%
- Tumor weight (gram) x ± SD (human lung cancer A549; 1 mg/kg): 0.843 ± 0.08 gram
- Tumor Inhibition rate % (human lung cancer A549; 1 mg/kg): 42.26%
- Tumor weight (gram) x ± SD (human lung cancer A549; 2 mg/kg): 0.198 ± 0.04 gram
- Tumor Inhibition rate % (human lung cancer A549; 2 mg/kg): 86.30%

— patent US20220168319A1, “COMBINED USE OF A-NOR-5alpha ANDROSTANE COMPOUND DRUG AND ANTICANCER DRUG” (SHANGHAI AO QI MEDICAL TECHNOLOGY CO., LTD., priority 2019, published 2022)
